Measured values taken from ChEMBL document CHEMBL5550189, “Discovery of GS-7682, a Novel 4'-Cyano-Modified C-Nucleoside Prodrug with Broad Activity against Pneumo- and Picornaviruses and Efficacy in RSV-Infected African Green Monkeys” (J Med Chem, 2024).
Calls of active or inactive are those of the source. No cut-off for these calls is given here.

Columns and labels:
[1] = Distribution coefficient, log D of compound measured after 30 mins by HPLC/UV analysis; type: physicochemical; conditions: octanol/water
[2] = Drug metabolism in Cynomolgous monkey assessed as half life of (2R,3S,4R,5S)-5-(4-aminopyrrolo[2,1-f][1,2,4]triazin-7-yl)-3,4-dihydroxy-2-(hydroxymethyl)tetrahydrofuran-2-carbonitrile metabolite at 5 mg/kg, iv measured after 30 mins by LC-MS/MS analysis; type: ADME, organism-based, Macaca fascicularis; conditions: cynomolgus monkey, in vivo, 0.5 h
[3] = Half life in African green monkey at lung-deposited dose of 5.9 mg/kg, IT measured after 24 hrs by LC-MS/MS analysis; type: ADME, organism-based; conditions: chlorocebus aethiops, in vivo
[4] = tested on: Respiratory syncytial virus; experiment: (§1) Antiviral activity against RSV A2 infected in human airway epithelium transwell culture assessed as decrease in viral RNA level by measuring log10 reduction in median viral load at 0.25 uM pretreated at apical side for 3 hrs followed by compound washout and subsequent viral infection at apical side for 3 hrs followed by removal of virus and recurrent addition of compound on day 1 and 2 at basolateral side measured on day 3 by RT-qPCR analysis; type: functional; conditions: time 75 hrs
[5] = tested on: Respiratory syncytial virus; experiment: Antiviral activity against RSV A2 infected in Normal human bronchial epithelial cells assessed as inhibition of intracellular virus replication; type: functional, organism-based; conditions: A2, Epithelial cell
[6] = tested on: Respiratory syncytial virus; experiment: as §1, with “0.01” for “0.25”, “0” for “1 and 2”, “apical” for “basolateral”; type: functional; conditions: time 75 hrs
[7] = Drug concentration in lung of Cynomolgous monkey measured per gram of tissue at 5 mg/kg, iv measured after 24 hrs by LC-MS/MS analysis; type: ADME, organism-based, Macaca fascicularis; conditions: cynomolgus monkey, in vivo
[8] = tested on: Respiratory syncytial virus; experiment: Antiviral activity against RSV infected in African green monkey assessed as reduction in viral RNA copies in BAL at lung-deposited dose of 1.6 to 7.6 mg/kg, IT qd for 6 days measured for 3 to 11 days by RT-qPCR analysis; type: functional, organism-based; conditions: dose 1.6-7.6 mg/kg, time 11.0 day
[9] = tested on: Respiratory syncytial virus; experiment: Antiviral activity against RSV infected in African green monkey assessed as reduction in viral load in BAL at lung-deposited dose of 1.6 to 7.6 mg/kg, IT qd for 6 days measured on day 11 by RT-qPCR analysis; type: functional, organism-based; conditions: dose 1.6-7.6 mg/kg, time 11.0 day
[10] = Cytotoxicity against Normal human bronchial epithelial cells; type: toxicity, cell-based, Epithelial cell
[11] = tested on: Respiratory syncytial virus; experiment: Antiviral activity against Fluc-fused RSV A2 infected in D-HBE-As cells incubated for 3 days by ONE Glo luciferase assay; type: functional, organism-based; conditions: human respiratory syncytial virus, 72 h
[12] = tested on: Respiratory syncytial virus; experiment: Antiviral activity against RSV infected in African green monkey assessed as reduction in viral load in nasal swabs at lung-deposited dose of 1.6 to 7.6 mg/kg, IT qd for 6 days; type: functional, organism-based; conditions: dose 1.6-7.6 mg/kg, time 6.0 day
[13] = Drug metabolism in African green monkey assessed as half life of (2R,3S,4R,5S)-5-(4-aminopyrrolo[2,1-f][1,2,4]triazin-7-yl)-3,4-dihydroxy-2-(hydroxymethyl)tetrahydrofuran-2-carbonitrile metabolite at lung-deposited dose of 5.9 mg/kg, IT measured after 24 hrs by LC-MS/MS analysis; type: ADME, organism-based; conditions: chlorocebus aethiops, in vivo, other
[14] = AUC (0 to 24 hrs) in Cynomolgous monkey at 5 mg/kg, iv measured after 30 mins by LC-MS/MS analysis; type: ADME, organism-based, Macaca fascicularis; conditions: cynomolgus monkey, in vivo
[15] = tested on: Respiratory syncytial virus; experiment: as §1, with “0.05” for “0.25”; type: functional; conditions: time 75 hrs
[16] = AUC (0 to 24 hrs) in Cynomolgous monkey at lung-deposited dose of 4 mg/kg, IT measured after 24 hrs by LC-MS/MS analysis; type: ADME, organism-based, Macaca fascicularis; conditions: cynomolgus monkey, in vivo
[17] = Cytotoxicity against human Hep-2 cells incubated for 4 to 5 days by Cell Titer Glo assay; type: toxicity, cell-based; conditions: time 4-5 day
[18] = Drug metabolism in African green monkey assessed as Cmax of (2R,3S,4R,5S)-5-(4-aminopyrrolo[2,1-f][1,2,4]triazin-7-yl)-3,4-dihydroxy-2-(hydroxymethyl)tetrahydrofuran-2-carbonitrile metabolite at lung-deposited dose of 5.9 mg/kg, IT measured after 24 hrs by LC-MS/MS analysis; type: ADME, organism-based; conditions: chlorocebus aethiops, in vivo, other
[19] = Cytotoxicity against rhesus monkey LLC-MK2 cells incubated for 5 days by MTS assay; type: toxicity, cell-based, Macaca mulatta; conditions: time 5 day
[20] = tested on: Respiratory syncytial virus; experiment: Antiviral activity against RSV infected in African green monkey assessed as reduction in viral load in BAL at lung-deposited dose of 1.6 to 7.6 mg/kg, IT qd for 6 days measured on day 7 to 9 by RT-qPCR analysis; type: functional, organism-based; conditions: dose 1.6-7.6 mg/kg, time 9.0 day
[21] = tested on: Respiratory syncytial virus; experiment: Antiviral activity against Fluc-fused RSV A2 infected in Normal human bronchial epithelial cells incubated for 3 days by ONE Glo luciferase assay; type: functional, organism-based; conditions: A2, Epithelial cell, 72 h
[22] = Half life in Cynomolgous monkey at 5 mg/kg, iv measured after 30 mins by LC-MS/MS analysis; type: ADME, organism-based, Macaca fascicularis; conditions: cynomolgus monkey, in vivo
[23] = Drug metabolism in Cynomolgous monkey assessed as AUC (0 to 24 hrs) of (2R,3S,4R,5S)-5-(4-aminopyrrolo[2,1-f][1,2,4]triazin-7-yl)-3,4-dihydroxy-2-(hydroxymethyl)tetrahydrofuran-2-carbonitrile metabolite at 5 mg/kg, iv measured after 30 mins by LC-MS/MS analysis; type: ADME, organism-based, Macaca fascicularis; conditions: cynomolgus monkey, in vivo, 0.5 h
[24] = Drug concentration in lung of Cynomolgous monkey at lung-deposited dose of 4 mg/kg, IT measured after 24 hrs by LC-MS/MS analysis; type: ADME, organism-based, Macaca fascicularis; conditions: cynomolgus monkey, in vivo, other
[25] = Drug metabolism in Cynomolgous monkey assessed as AUC (0 to 24 hrs) of (2R,3S,4R,5S)-5-(4-aminopyrrolo[2,1-f][1,2,4]triazin-7-yl)-3,4-dihydroxy-2-(hydroxymethyl)tetrahydrofuran-2-carbonitrile metabolite at lung-deposited dose of 4 mg/kg, IT measured after 24 hrs by LC-MS/MS analysis; type: ADME, organism-based, Macaca fascicularis; conditions: cynomolgus monkey, in vivo, other
[26] = tested on: Respiratory syncytial virus; experiment: as §1, with “0” for “1 and 2”, “apical” for “basolateral”; type: functional; conditions: time 75 hrs
[27] = tested on: Respiratory syncytial virus; experiment: Antiviral activity against RSV infected in African green monkey assessed as log10 reduction in viral load in BAL at lung-deposited dose of 1.6 to 7.6 mg/kg, IT qd measured after 5 days by RT-qPCR analysis; type: functional; conditions: dose 1.6-7.6 mg/kg, time 5 day
[28] = Prodrug conversion in D-HBE-As cells assessed as ((2R,3S,4R,5S)-5-(4-aminopyrrolo[2,1-f][1,2,4]triazin-7-yl)-2-cyano-3,4-dihydroxytetrahydrofuran-2-yl)methyl tetrahydrogen triphosphate formation measured per million cells at 1 uM measured after 48 hrs by LC-MS/MS analysis; type: ADME, cell-based; conditions: human
[29] = Cytotoxicity against human MT4 cells incubated for 5 days by Cell Titer Glo assay; type: toxicity, cell-based; conditions: time 5 day
[30] = tested on: Respiratory syncytial virus; experiment: as §1, with “0.05” for “0.25”, “0” for “1 and 2”, “apical” for “basolateral”; type: functional; conditions: time 75 hrs
[31] = Selectivity index, ratio of CC50 for Normal human bronchial epithelial cells to EC50 for RSV A2 infected in Normal human bronchial epithelial cells; type: toxicity; conditions: read-out: Ratio CC50/EC50

## COC(=O)[C@H](C)N[P@](=O)(OC[C@@]1(C#N)O[C@@H](c2ccc3c(N)ncnn23)[C@H](OC(=O)C(C)C)[C@@H]1OC(=O)C(C)C)Oc1ccccc1
[1]
  logD at 0.5 h: 3
[2]
  t1/2: 8.71 h
[3]
  half-life: 7.01 h
[4]
  Activity: 2.5 log10/ml
[5]
  IC50: < 0.038 µM
[6]
  Activity: 0.2 log10/ml
[7]
  Drug uptake: 4.28 nmol/g
[8]
  Activity: Active
[9]
  Activity: Active
[10]
  CC50: 8.3 µM
[11]
  EC50: 0.006 µM
[12]
  Activity: inactive
[13]
  t1/2: 14.7 h
[14]
  AUC(0-t) at 0.5 h: 0.962 µM·h
[15]
  Activity: 0.5 log10/ml
[16]
  AUC(0-t) at 24 h: 1.86 µM·h
[17]
  CC50: 22.7 µM
[18]
  Cmax: 220 nM
[19]
  CC50 at 120 h: > 2 µM
[20]
  Activity: inactive
[21]
  EC50: < 0.003 µM
[22]
  half-life: 0.34 h
[23]
  AUC: 6.03 µM·h
[24]
  Drug uptake: 20.5 nmol
[25]
  AUC: 2.55 µM·h
[26]
  Activity: 1.9 log10/ml
[27]
  Activity: 3.6 log10/ml
[28]
  Drug metabolism: 113.3 pM
[29]
  CC50 at 120 h: 3.24 µM
[30]
  Activity: 0.2 log10/ml
[31]
  selectivity ratio: 640
